Experimental data published in patent US4496551A (priority 1983, dated 1985).

How the values were obtained:
Format in all cases: in vivo
Venturia inaequalis = assay: apple scab control on apple seedlings; settings: 100 ppm; for pest or weed control at 100 ppm: Venturia inaequalis
Experimental: Compounds of this invention were dissolved in acetone in an amount equal to 6% of the final volume and then suspended at a concentration of 100 ppm in purified water containing 250 ppm of the surfactant TREM 014 (polyhydric alcohol esters). This suspension was sprayed to the point of run-off on apple seedlings. The following day, the plants were inoculated with a spore suspension of the fungus Venturia inaequalis, causal agent of apple scab, and incubated in a saturated humidity chamber at 20° for 24 hours and then in a growth room for an additional 10-12 days. Treated plants from successful treatments had few or no apple scab lesions when compared to untreated plants which were covered with scab lesions.

Phytophthora infestans = assay: whole plant or invertebrate; settings: for pest or weed control at 100 ppm: Phytophthora infestans, in Solanum lycopersicum, 168 h, read-out: % Control of Tomato Late Blight
Rhizoctonia solani = assay: rice sheath blight control on rice seedlings; settings: 7 days; for pest or weed control at 100 ppm: Rhizoctonia solani, 168 h
Experimental: Several compounds of the previous examples were again dissolved in acetone in an amount equal to 6% of the final volume and then suspended at a concentration of 100 ppm in purified water containing 250 ppm of the surfactant TREM 014 (polyhydric alcohol esters). This suspension was sprayed to the point of run-off on rice seedlings. The following day, the plants were inoculated with a mixture of bran and the mycelium of Rhizoctonia solani, causal agent of sheath blight of rice, and incubated in a growth room for 7 days. Disease ratings were then made. Treated plants from successful treatments had little sheath blight in contrast to untreated plants which were covered with sheath blight.

Cercospora arachidicola = assay: peanut early leafspot control on peanut seedlings; settings: for pest or weed control at 100 ppm: Mycosphaerella arachidis, 336 h
Experimental: Compounds of the previous examples were again dissolved in acetone in an amount equal to 6% of the final volume and then suspended at a concentration of 100 ppm in purified water containing 250 ppm of the surfactant TREM 014 (polyhydric alcohol esters). This suspension was sprayed to the point of run-off on peanut seedlings. The following day, the plants were inoculated with a spore suspension of Cercospora arachidicola, causal agent of peanut early leafspot, and incubated in a saturated humidity chamber at 27° for 24 hours and then in a growth room for an additional 14 days, when disease ratings were made. Treated plants from successful treatments had few or no leafspots while the untreated plants had numerous leafspots on each leaf.

Erysiphe cichoracearum = assay: cucumber powdery mildew control on cucumber seedlings; settings: 7 days; for pest or weed control at 100 ppm: Golovinomyces cichoracearum, 168 h
Experimental: Compounds of the previous examples were again dissolved in acetone in an amount equal to 6% of the final volume and then suspended at a concentration of 100 ppm in purified water containing 250 ppm of the surfactant TREM 014 (polyhydric alcohol esters). This suspension was sprayed to the point of run-off on cucumber seedlings. The following day, the plants were inoculated with a spore suspension of the fungus Erysiphe cichoracearum, causal agent of cucumber powdery mildew, and incubated in a growth room for 7 days. Disease ratings were then made. Treated plants from successful treatments had little or no powdery mildew in contrast to untreated plants which were covered with powdery mildew.

[1] = tested on: Puccinia recondita var. tritici; assay: wheat leaf rust control on wheat seedlings; settings: 100 ppm, sprayed day before inoculation
Experimental: Compounds of this invention were dissolved in acetone in an amount equal to 6% of the final volume and then suspended at a concentration of 100 ppm in purified water containing 250 ppm of the surfactant TREM 014 (polyhydric alcohol esters). This suspension was sprayed to the point of run-off on wheat seedlings. The following day, the plants were inoculated with a spore suspension of Puccinia recondita var. tritici, causal agent of wheat leaf rust, and incubated in a saturated humidity chamber at 20° for 24 hours and then in a growth room for an additional 7 days, when disease ratings were made. Treated plants from successful treatments had few or no rust pustules while the untreated plants had numerous rust pustules on each leaf.

Helminthosporium maydis = assay: southern corn leaf blight control on corn seedlings; settings: for pest or weed control at 100 ppm: Bipolaris maydis, 168 h
Experimental: Compounds of the previous example were again dissolved in acetone in an amount equal to 6% of the final volume and then suspended at a concentration of 100 ppm in purified water containing 250 ppm of the surfactant TREM 014 (polyhydric alcohol esters). This suspension was sprayed to the point of run-off on corn seedlings. The following day, the plants were inoculated with a spore suspension of Helminthosporium maydis, causal agent of southern corn leaf blight, and incubated in a saturated humidity chamber at 20° for 24 hours and then in a growth room for an additional 7 days, when disease ratings were made. Treated plants from successful treatments had few lesions while the untreated plants had numerous lesions on each leaf.

Pyricularia oryzae = assay: whole plant or invertebrate; settings: 168 h, read-out: % Control of Rice Blast

SMILES | % Control Apple Scab (Venturia inaequalis) | % Control of Tomato Late Blight (Phytophthora infestans; 100 ppm) | % Control of Rice Sheath Blight (Rhizoctonia solani; 100 ppm) | % Control Peanut Early Leafspot (Cercospora arachidicola; 100 ppm) | % Control Cucumber Powdery Mildew (Erysiphe cichoracearum; 100 ppm) | % Control Wheat Leaf Rust [1] | % Control of Southern Corn Leaf Blight (Helminthosporium maydis; 100 ppm) | pest or weed control at 100 ppm (Venturia inaequalis) | pest or weed control at 100 ppm (Phytophthora infestans) | pest or weed control at 100 ppm (Rhizoctonia solani) | pest or weed control at 100 ppm (Cercospora arachidicola) | pest or weed control at 100 ppm (Erysiphe cichoracearum) | pest or weed control at 100 ppm [1] | pest or weed control at 100 ppm (Pyricularia oryzae) | pest or weed control at 100 ppm (Helminthosporium maydis)
C[Si](C)(Cn1ccnc1)c1ccc(-c2ccccc2)cc1.[Cl][Cu] [1:1 complex of (1,1'-Biphenyl-4-yl)dimethyl(1H-imidazol-1-ylmethyl)silane and Cuprous Chloride] | 100% | 0% | 50% | 100% | 100% | 100% | 0% | – | – | – | – | – | – | – | –
C[Si](C)(Cn1ccnc1)c1ccccc1-c1ccccc1 [(1,1'-Biphenyl-2-yl)dimethyl(1H-imidazol-1-ylmethyl)silane] | – | – | – | – | – | – | – | 90% | 0% | 90% | 30% | 50% | 0% | 90% | 0%
C[Si](C)(Cn1ccnc1)c1cccc(-c2ccccc2)c1 [(1,1'-Biphenyl-3-yl)dimethyl(1H-imidazol-1-ylmethyl)silane] | – | – | – | – | – | – | – | 90% | 0% | 90% | 80% | 0% | 90% | 80% | 90%
C[Si](Cn1ccnc1)(c1ccccc1)c1ccc(-c2ccccc2)cc1 (stereo not drawn) [(1,1'-Biphenyl-4-yl)(1H-imidazol-1-ylmethyl)methyl(phenyl)silane] | – | – | – | – | – | – | – | 0% | 0% | 0% | 80% | 100% | 100% | 0% | 80%
C[Si](Cn1ccnc1)(c1ccc(F)cc1)c1ccc(-c2ccccc2)cc1 (stereo not drawn) [(1,1'-Biphenyl-4-yl)(4-fluorophenyl)(1H-imidazol-1-ylmethyl)methylsilane] | – | – | – | – | – | – | – | 50% | 0% | 0% | 100% | 100% | 80% | – | 70%
CC(C)(C)O[Si](C)(Cn1ccnc1)c1ccccc1 (stereo not drawn) [(1,1-Dimethylethoxy)(1H-imidazol-1-ylmethyl)methyl(phenyl)silane] | – | – | – | – | – | – | – | 0% | 0% | 0% | 0% | 100% | 0% | 0% | 0%
COc1ccc([Si](C)(Cn2ccnc2)c2ccc(OC)cc2)cc1 [(1H-Imidazol-1-ylmethyl)[bis(4-methoxyphenyl)]methylsilane] | – | – | – | – | – | – | – | 50% | 0% | 0% | 0% | 50% | 0% | 0% | 0%
CC(C)O[Si](C)(Cn1ccnc1)c1ccccc1 (stereo not drawn) [(1H-Imidazol-1-ylmethyl)methyl(phenyl)(2-propoxy)silane] | – | – | – | – | – | – | – | 0% | 0% | 0% | 0% | 90% | 0% | 0% | 0%
CC(C)O[Si](Cn1ccnc1)(OC(C)C)c1ccccc1 [(1H-Imidazol-1-ylmethyl)phenylbis(2-propoxy)silane] | – | – | – | – | – | – | – | 70% | 0% | 0% | 0% | 0% | 0% | – | 0%
COc1cccc([Si](C)(C)Cn2ccnc2)c1OC [(2,3-Dimethoxyphenyl)(1H-imidazol-1-ylmethyl)dimethylsilane] | – | – | – | – | – | – | – | 0% | 0% | 0% | 0% | 100% | 0% | 0% | 0%
C[Si](Cn1ccnc1)(c1ccccc1)c1ccc(Cl)cc1Cl (stereo not drawn) [(2,4-Dichlorophenyl)(1H-imidazol-1-ylmethyl)methyl(phenyl)silane] | – | – | – | – | – | – | – | 80% | 0% | 0% | 100% | 100% | 90% | 0% | 0%
COc1cccc(OC)c1[Si](C)(C)Cn1ccnc1 [(2,6-Dimethoxyphenyl)dimethyl(1H-imidazol-1-ylmethyl)silane] | – | – | – | – | – | – | – | 0% | 50% | 0% | 0% | 0% | 0% | 0% | 50%
C[Si](Cn1ccnc1)(c1ccccc1)c1ccccc1Cl (stereo not drawn) [(2-Chlorophenyl)(1H-imidazol-1-ylmethyl)methyl(phenyl)silane] | – | – | – | – | – | – | – | 100% | 0% | 0% | 100% | 100% | 0% | 0% | 0%
C[Si](Cn1ccnc1)(c1ccc(Cl)cc1)c1ccccc1Cl (stereo not drawn) [(2-Chlorophenyl)(4-chlorophenyl)(1H-imidazol-1-ylmethyl)methylsilane] | – | – | – | – | – | – | – | 80% | 0% | 0% | 80% | 100% | 100% | – | 0%
C[Si](C)(Cn1ccnc1)c1cccc(Cl)c1 [(3-Chlorophenyl)dimethyl(1H-imidazol-1-ylmethyl)silane] | – | – | – | – | – | – | – | 60% | 0% | 90% | 0% | 80% | 80% | 0% | 0%
CC(n1ccnc1)[Si](C)(c1ccc(F)cc1)c1ccc(F)cc1 (stereo not drawn) [bis(4-Fluorophenyl)methyl[1-(1H-imidazol-1-yl)ethyl]silane] | – | – | – | – | – | – | – | 100% | 0% | 90% | 0% | 100% | 0% | 0% | –
